From patent US20240190854A1, “PYRIMIDINE OR PYRIDINE DERIVATIVES USEFUL AS HCN2 MODULATORS” (King's College London, priority 2021, published 2024) come the findings set out here.

Each structure is given as a SMILES string. Counter-ions that a name gives are not always drawn. Bounds are passed on as bounds.

One assay deals with HCN2 (Homo sapiens (Human), UniProt Q9UL51). The assay is described as follows: HCN2 current assay using PatchXpress 7000A. The assay is classed as cell-based. The following applies: PatchXpress protocol; read-out: PX HCN2 IC50. The protocol:
(§1) Example 126A, Using PatchXpress 7000A
(§2) Solutions for recording HCN currents were:
The membrane voltage was then stepped back to −30 mV for a further 8 seconds.
(§3) The peak inward current measured at the end of the pulse to −110 mV (HCN1 and HCN2) or −130 mV (HCN4) was measured and any leak current subtracted to calculate the HCN current. The HCN current amplitude was measured after each control or compound addition and normalized to the control amplitude (Control A).
(§4) All experiments were performed at room temperature (approximately 22° C.).
(§5) Each test compound concentration was applied to the cell for seven (7) minutes, at which point the next cumulative concentration was applied.

The next assay addresses HCN4 (Homo sapiens (Human), UniProt Q9Y3Q4). As to the kind of experiment: HCN4 current assay using PatchXpress 7000A. The following applies: PatchXpress protocol; read-out: PX HCN4 IC50. In kind it is cell-based. The procedure: as §1, §2, §3, §4, §5

Sequence of HCN2 (Q9UL51 whole entry): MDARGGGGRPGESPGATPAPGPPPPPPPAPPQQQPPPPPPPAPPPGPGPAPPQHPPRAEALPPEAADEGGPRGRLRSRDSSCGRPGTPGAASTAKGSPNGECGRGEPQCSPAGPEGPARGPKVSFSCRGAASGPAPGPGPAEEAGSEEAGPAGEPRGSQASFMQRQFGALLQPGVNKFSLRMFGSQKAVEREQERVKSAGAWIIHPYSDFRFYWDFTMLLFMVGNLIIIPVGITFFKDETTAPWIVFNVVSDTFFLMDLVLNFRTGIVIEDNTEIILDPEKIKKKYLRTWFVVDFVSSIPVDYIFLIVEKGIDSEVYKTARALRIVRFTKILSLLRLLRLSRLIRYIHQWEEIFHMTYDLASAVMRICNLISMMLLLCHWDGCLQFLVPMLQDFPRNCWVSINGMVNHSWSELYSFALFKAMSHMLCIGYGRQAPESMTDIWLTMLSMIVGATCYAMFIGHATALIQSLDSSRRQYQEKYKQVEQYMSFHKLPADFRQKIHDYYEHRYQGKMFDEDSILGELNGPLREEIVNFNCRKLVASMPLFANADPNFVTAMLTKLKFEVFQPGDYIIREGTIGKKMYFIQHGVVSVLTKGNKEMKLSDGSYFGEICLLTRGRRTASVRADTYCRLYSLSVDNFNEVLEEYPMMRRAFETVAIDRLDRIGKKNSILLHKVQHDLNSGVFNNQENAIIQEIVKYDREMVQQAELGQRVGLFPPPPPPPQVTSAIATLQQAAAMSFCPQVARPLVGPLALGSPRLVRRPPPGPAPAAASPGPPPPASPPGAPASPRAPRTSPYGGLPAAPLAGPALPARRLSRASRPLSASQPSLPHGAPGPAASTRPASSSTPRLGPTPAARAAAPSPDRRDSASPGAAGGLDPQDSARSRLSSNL
Sequence of HCN4 (Q9Y3Q4 whole entry, species assumed): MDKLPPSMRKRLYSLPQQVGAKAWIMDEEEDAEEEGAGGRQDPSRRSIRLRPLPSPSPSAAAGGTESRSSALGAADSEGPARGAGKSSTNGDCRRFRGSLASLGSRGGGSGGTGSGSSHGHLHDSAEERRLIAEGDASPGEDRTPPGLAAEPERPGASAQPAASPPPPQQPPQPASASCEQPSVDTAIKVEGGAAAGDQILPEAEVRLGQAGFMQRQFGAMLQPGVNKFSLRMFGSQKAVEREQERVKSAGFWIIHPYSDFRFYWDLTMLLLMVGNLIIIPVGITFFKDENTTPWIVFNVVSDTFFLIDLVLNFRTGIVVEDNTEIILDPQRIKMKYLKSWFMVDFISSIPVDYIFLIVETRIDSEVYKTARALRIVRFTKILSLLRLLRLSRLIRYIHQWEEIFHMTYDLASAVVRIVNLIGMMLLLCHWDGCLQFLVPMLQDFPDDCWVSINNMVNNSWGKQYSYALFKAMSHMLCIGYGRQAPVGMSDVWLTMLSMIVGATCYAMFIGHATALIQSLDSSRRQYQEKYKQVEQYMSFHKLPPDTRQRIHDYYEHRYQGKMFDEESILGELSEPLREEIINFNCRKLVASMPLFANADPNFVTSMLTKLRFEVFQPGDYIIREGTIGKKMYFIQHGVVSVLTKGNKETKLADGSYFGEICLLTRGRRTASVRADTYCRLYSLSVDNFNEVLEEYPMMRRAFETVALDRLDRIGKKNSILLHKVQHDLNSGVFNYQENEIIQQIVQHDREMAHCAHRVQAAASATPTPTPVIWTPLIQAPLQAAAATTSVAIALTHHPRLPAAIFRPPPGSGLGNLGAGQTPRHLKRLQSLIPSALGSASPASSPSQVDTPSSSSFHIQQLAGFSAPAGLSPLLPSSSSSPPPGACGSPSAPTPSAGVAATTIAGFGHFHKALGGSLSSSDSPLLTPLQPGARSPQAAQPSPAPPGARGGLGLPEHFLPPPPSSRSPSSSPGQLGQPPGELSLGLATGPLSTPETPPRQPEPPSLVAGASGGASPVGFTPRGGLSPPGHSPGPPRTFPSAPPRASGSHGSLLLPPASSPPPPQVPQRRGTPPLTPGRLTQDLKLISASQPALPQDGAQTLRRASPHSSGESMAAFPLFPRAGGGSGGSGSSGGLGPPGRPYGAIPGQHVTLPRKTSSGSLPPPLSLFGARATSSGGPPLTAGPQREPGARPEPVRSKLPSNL

As for `CC(c1ccccn1)C(N)c1ccccc1-c1noc2ccccc12` (single isomer, unassigned; diastereomer 2) [Example 2, 1-[2-(Benzo[d]isoxazol-3-yl)phenyl]-2-(pyridin-2-yl)propan-1-amine hydrochloride (diastereomer 2)], the figures for the IC50 at HCN2 and at HCN4 were 0.96 µM and more than 30 µM, respectively. On to `CC(c1ccccn1)C(N)c1ccccc1-c1noc2ccccc12` (single isomer, unassigned; diastereomer 3) [Example 3, 1-[2-(Benzo[d]isoxazol-3-yl)phenyl]-2-(pyridin-2-yl)propan-1-amine hydrochloride (diastereomer 3)], for which the results for the IC50 at HCN2 and on HCN4 were 2.3 µM and more than 30 µM, respectively. Regarding `C#Cc1ccc2c(-c3ccccc3[C@@H](N)Cc3ccccn3)noc2c1` [Example 31, (S)-1-[2-(6-Ethynylbenzo[d]isoxazol-3-yl)phenyl]-2-(pyridine-2-yl)ethan-1-amine hydrochloride], the IC50 at HCN2 turned out to be 1.6 µM; on HCN4, 6.7 µM. In the same order, the values of `N[C@@H](Cc1cccc(C(O)CO)n1)c1ccccc1-c1noc2ccccc12` (stereo partly drawn) [Example 41, 1-(6-{(S)-2-Amino-2-[2-(benzo[d]isoxazol-3-yl)phenyl]ethyl}pyridine-2-yl)ethan-1,2-diol hydrochloride] are 14.1 µM and more than 30 µM. In the same order, the values of `N[C@@H](Cc1cccc(N2CC[C@@H](O)C2)n1)c1ccccc1-c1noc2ccccc12` [Example 50, (R)-1-(6-{(S)-2-Amino-2-[2-(benzo[d]isoxazol-3-yl)phenyl]ethyl}pyridine-2-yl)pyrrolidin-3-ol hydrochloride] are 5.6 µM and 4.9 µM. In the same order, the values of `COCCN(C)c1cccc(C[C@H](N)c2ccccc2-c2noc3ccccc23)n1` [Example 51, (S)-6-{2-Amino-2-[2-(benzo[d]isoxazol-3-yl)phenyl]ethyl}-N-(2-methoxyethyl)-N-methyl pyridin-2-amine hydrochloride] are 1.7 µM and 3.4 µM.

Take `N[C@@H](Cc1cccc(N2CCOCC2)n1)c1ccccc1-c1noc2ccccc12` [Example 54, (S)-1-[2-(Benzo[d]isoxazol-3-yl)phenyl]-2-(6-morpholinopyridine-2-yl)ethane-1-amine hydrochloride]: the results for the IC50 on HCN2 and on HCN4 were 1 µM and 2.1 µM, respectively. For the compound `COc1ccc(-c2noc3ccccc23)c([C@@H](N)Cc2ccccn2)c1` [Example 82, (S)-1-[2-(Benzo[d]isoxazol-3-yl)-5-methoxyphenyl]-2-(pyridine-2-yl)ethan-1-amine hydrochloride], the IC50 at HCN2 came out at 26.6 µM. For the compound `N[C@@H](Cc1ccccn1)c1ccc(Br)cc1-c1noc2ccccc12` [Example 85, (S)-1-[2-(Benzo[d]isoxazol-3-yl)-4-bromophenyl]-2-(pyridine-2-yl)ethan-1-amine], on HCN2, the IC50 worked out at 13 µM. Still for that read-out and setting: for `N[C@@H](Cc1ccccn1)c1cccc(Br)c1-c1noc2ccccc12` [Example 86, (S)-1-[2-(Benzo[d]isoxazol-3-yl)-3-bromophenyl]-2-(pyridine-2-yl)ethan-1-amine hydrochloride] the value was 17.4 µM. The same measure, in the same setting: the value for `N[C@@H](Cc1ccccn1)c1ccccc1-c1noc2ccc(Br)cc12` [Example 113, (S)-1-[2-(5-Bromobenzo[d]isoxazol-3-yl)phenyl]-2-(pyridine-2-yl)ethan-1-amine hydrochloride] was 22.9 µM; that for `COc1cccc(C[C@H](N)c2ccccc2-c2noc3ccccc23)n1` [Example 115, (S)-1-[2-(Benzo[d]isoxazol-3-yl)phenyl]-2-(6-methoxypyridine-2-yl)ethan-1-amine hydrochloride] was 0.69 µM. Take `N#Cc1cccc(C[C@H](N)c2ccccc2-c2noc3cc(Br)ccc23)n1` [Example 120, (S)-{2-Amino-[2-(6-bromobenzo[d]isoxazol-3-yl)phenyl]ethyl}-6-cyanopyridine]: at HCN2, the IC50 is 1.6 µM.
